Read-outs that look alike come from different tables or passages of the source.
Experiments:
HepG2 cells [1] = conditions: HepG2 value reported with Pf FGAA screen; ref Miguel-Blanco et al 2017; cited from earlier work
[2] = system: P. falciparum female gametocytes; experiment: P. falciparum female gametogenesis assay (Pf FGAA); conditions: 1: YES, 0: NO
[3] = system: P. falciparum female gametocytes; design: method as in Miguel-Blanco et al 2017; conditions: ref Miguel-Blanco et al 2017, read-out: Pf FGAA IC50, cited from earlier work
HepG2 cells [4] = experiment: HepG2 cytotoxicity assay; conditions: unified HepG2 cytotoxicity across the three screens
In short: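 Cells at 2,500 per well in MEM with 10% fetal bovine serum and 1% NEAA were exposed to test compounds for 48 h at 37°C, 5% CO2. Viability was read by fluorescence, with percent inhibition calculated against 50 μM doxorubicin (positive) and DMSO (negative) controls.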

[5] = >10-fold selectivity over cytotox

SMILES	HepG2 cytoxicity (Pf FGAA screen) (HepG2 cells [1])	Is compound selective in assay? Pf FGAA active? [2]	IC50 ([3]; TCAMS library screen)	Unified cytotox (HepG2 cells [4])	Is compound selective in assay? Pf FGAA active? [2, 5]	IC50 [3]
O=C(Nc1cc(C(F)(F)F)cc(C(F)(F)F)c1)Nc1ccc(Cl)c(Cl)c1 [TCMDC-125592]	3.07 µM	0 (0: NO)	1430 nM	–	–	–
Cc1noc(C)c1-c1ccc2c(Nc3nccc4ccccc34)c(C(N)=O)cnc2c1 [TCMDC-136456]	3.85 µM	0 (0: NO)	1540 nM	–	–	–
CC(C)(C)Nc1cc(C2CC2)nc(-c2ccccn2)n1 [TCMDC-124453]	>100 µM	1 (1: YES)	100 nM	–	–	–
CC(C)c1ccc(CN2CCC(CNC(=O)c3cc(-c4ccc(N(C)C)cc4)cs3)C2)cc1.O=C(O)C(F)(F)F (stereo not drawn) [TCMDC-134440]	5.85 µM	0 (0: NO)	710 nM	–	–	–
CN(C)CCCNCc1cn(S(=O)(=O)c2ccccc2Cl)c2ccccc12.Cl [TCMDC-136302]	11.78 µM	0 (0: NO)	1840 nM	–	–	–
CC(CO)(CO)NCc1cc2c3ccccc3c(CNC(C)(CO)CO)cc2c2ccccc12.CS(=O)(=O)O [TCMDC-137752]	7.33 µM	0 (0: NO)	4420 nM	–	–	–
CCc1c(CCNC/C=C/C=C/CNCCc2ccc(OC)c(OC)c2CC)ccc(OC)c1OC.Cl [TCMDC-132061]	4.68 µM	0 (0: NO)	2560 nM	–	–	–
COc1ccccc1CNc1ccnc(N2CC(Oc3ccc(F)cc3)C2)n1 [TCMDC-135118]	73.68 µM	1 (1: YES)	4070 nM	–	–	–
CCn1c(-c2nonc2N)nc2c(-c3cccc(NC(=O)NC45CC6CC(CC(C6)C4)C5)c3)ncc(OCCCN)c21.O=C(O)C(F)(F)F [TCMDC-136246]	6.10 µM	0 (0: NO)	1360 nM	–	–	–
COc1ccc2ccccc2c1CCCCN1CCN(CC(c2ccc(F)cc2)N2CCC2)CC1.O=C(O)C(F)(F)F (stereo not drawn) [TCMDC-135867]	4.37 µM	0 (0: NO)	5860 nM	–	–	–
Cl.Fc1cc(Cl)ccc1Nc1ccnc2cc(-c3ccc(CN4CCNCC4)o3)ccc12 [TCMDC-138394]	12.05 µM	0 (0: NO)	1910 nM	–	–	–
CN1CCC(NCc2cccc(-c3ccc(S(=O)(=O)NCc4ccccc4)c(F)c3)c2)CC1.O=C(O)C(F)(F)F [TCMDC-132219]	5.13 µM	0 (0: NO)	2630 nM	–	–	–
FC(F)(F)c1cccc(Nc2nc3ccccc3nc2Nc2cccc(C(F)(F)F)c2)c1 [TCMDC-124162]	17.68 µM	0 (0: NO)	2400 nM	–	–	–
CC(C)c1ccc(CN2CCC(CNC(=O)c3cc(-c4ccccc4F)cs3)C2)cc1.O=C(O)C(F)(F)F (stereo not drawn) [TCMDC-134436]	9.14 µM	0 (0: NO)	1080 nM	–	–	–
OCCN1CCN(c2ccc(Nc3ccnc4cc5ccccc5cc34)cc2)CC1 [TCMDC-123915]	5.43 µM	0 (0: NO)	3340 nM	–	–	–
O=C(O)C(F)(F)F.O=S(=O)(NCCN1CCCC1)c1ccc(-c2ccc(CNC3Cc4ccccc4C3)cc2)s1 [TCMDC-132234]	5.83 µM	0 (0: NO)	2270 nM	–	–	–
O=S(=O)(Nc1cccc(F)c1CNCc1ccccn1)c1ccc(Cl)c(Cl)c1 [TCMDC-132598]	20.42 µM	1 (1: YES)	1360 nM	–	–	–
CN(/N=C/C=C/c1ccc(Cl)cc1)c1nc(NCCc2ccc(O)cc2)nc(N2CCNCC2)n1 [TCMDC-138546]	13.18 µM	0 (0: NO)	1960 nM	–	–	–
OC1CCN(c2cc(-c3ccccn3)nc(-c3ccccn3)n2)CC1 [TCMDC-123786]	14.14 µM	0 (0: NO)	1540 nM	–	–	–
Cc1sc2nc(CN3CCCC3)nc(-n3c(NCCO)nc4ccccc43)c2c1C [TCMDC-124811]	25.73 µM	0 (0: NO)	7050 nM	–	–	–
O=C(Nc1cccc(-c2cccc(-c3nc4cc(C(F)(F)F)ccc4[nH]3)c2)c1)Nc1ccc(F)c(F)c1F [TCMDC-133229]	3.43 µM	0 (0: NO)	1400 nM	–	–	–
COc1ccccc1C1CCN(C2CCC(NC(=O)c3ccc4[nH]c(-c5ccc(C)cc5)nc4c3)CC2)CC1 (stereo not drawn) [TCMDC-133556]	3.99 µM	0 (0: NO)	2490 nM	–	–	–

SMILES	HepG2 cytoxicity (Pf FGAA screen) (HepG2 cells [1])	Is compound selective in assay? Pf FGAA active? [2]	IC50 ([3]; TCAMS library screen)	Unified cytotox (HepG2 cells [4])	Is compound selective in assay? Pf FGAA active? [2, 5]	IC50 [3]
NCCCCNc1cc(-c2ccnc(Nc3cccc(Cl)c3)n2)ccn1 [TCMDC-134683]	0.67 µM	0 (0: NO)	1460 nM	–	–	–
Clc1ccc(Nc2nc3ccc(Cl)cc3nc2Nc2ccc(Cl)cc2)cc1 [TCMDC-137772]	7.86 µM	0 (0: NO)	1910 nM	–	–	–
Nc1cc2c(C3CCN(CC4CCN(C(=O)/C=C/c5ccc(Cl)c(Cl)c5)CC4)CC3)c[nH]c2cn1 [TCMDC-140133]	–	–	–	6.24 µM	0 (0: NO)	1970 nM
Nc1nc(N)c2cc(NC(=O)c3ccc(Cl)c(Cl)c3)ccc2n1 [TCMDC-141982]	–	–	–	2.14 µM	0 (0: NO)	1590 nM
Cl.Nc1c2c(nc3ccc(NC(=O)CCCCCCc4ccccc4)cc13)CCCC2 [TCMDC-139056]	–	–	–	5.42 µM	0 (0: NO)	2380 nM
CC(C)Cn1cc(C2CCN(CCN3CCC(CNC(=O)c4ccc(-c5ccc(C(F)(F)F)cc5)cc4)CC3)CC2)c2ccccc21 [TCMDC-138852]	–	–	–	4.80 µM	0 (0: NO)	880 nM
CCN1CCC2(c3cccc(OC)c3)Cc3nc4ccccc4c(-c4ccccc4)c3CC2C1 (stereo not drawn) [TCMDC-138968]	–	–	–	33.25 µM	1 (1: YES)	1430 nM
Cc1ccc(Cn2ncc(N3CCCNCC3)c(Cl)c2=O)cc1NC(=O)Nc1ccc(-c2ccccc2)cc1 [TCMDC-141924]	–	–	–	7.86 µM	0 (0: NO)	1730 nM
COc1cc2nc(-c3ccc(Br)cc3)cc(N)c2cc1OC [TCMDC-138933]	–	–	–	4.95 µM	0 (0: NO)	760 nM
CC(C)(C)c1ccc(CNC(=O)/C=C/c2ccc(CNC3CCNCC3)cc2)cc1 [TCMDC-140773]	–	–	–	9.47 µM	0 (0: NO)	1920 nM
COc1cc2nc(N3CCC(CNC(=O)c4ccc(-c5ccc(C(F)(F)F)cc5)cc4)CC3)nc(N)c2cc1OC [TCMDC-138716]	–	–	–	4.92 µM	0 (0: NO)	850 nM
Oc1ccc2[nH]cc(C3CCN(CCCNCc4ccc(-c5ccccc5)cc4)CC3)c2c1 [TCMDC-139047]	–	–	–	5.62 µM	0 (0: NO)	1440 nM
CCN(CC)CCN(Cc1ccc(-c2ccc(Cl)cc2)cc1)C(=O)Cn1cc(CN(C)C)c(=O)nc1SCc1ccc(F)cc1 [TCMDC-140406]	–	–	–	6.61 µM	0 (0: NO)	1380 nM
COC(=O)c1ccc(-c2ccc(-c3cccnc3)cc2C)cc1 [TCMDC-139074]	–	–	–	3.63 µM	0 (0: NO)	590 nM
Cc1c(N=O)cc(C(C)(C)C)c(O)c1C(=O)Nc1ccc([N+](=O)[O-])cc1Cl [TCMDC-142233]	–	–	–	1.78 µM	0 (0: NO)	1170 nM
CC(Cc1ccc(NC(=O)c2ccc(CNCCCCc3ccccc3)cc2)cc1)NCCc1cccc(Cl)c1.Cl (stereo not drawn) [TCMDC-139866]	–	–	–	1.97 µM	0 (0: NO)	1120 nM
O=C(NCC1CCN(CCN2CCC(c3cn(CCO)c4ccccc34)CC2)CC1)c1ccc(-c2ccc(C(F)(F)F)cc2)cc1 [TCMDC-138856]	–	–	–	2.69 µM	0 (0: NO)	1470 nM
CCn1c2ccccc2c2cc(C=NN=c3cc(C)[nH]c4ccccc34)ccc21 [TCMDC-142186]	–	–	–	5.82 µM	0 (0: NO)	4150 nM
CC(Cc1ccc(NS(=O)(=O)c2ccc(CC(C)NCCc3cccc(Cl)c3)cc2)cc1)NCCc1cccc(Cl)c1 (stereo not drawn) [TCMDC-139797]	–	–	–	4.37 µM	0 (0: NO)	1840 nM
O=C(Nc1cc(Cl)c(Cl)cc1NC(=O)c1cccc(-c2ccccc2)c1O)c1cccc(-c2ccccc2)c1O [TCMDC-139548]	–	–	–	3.09 µM	0 (0: NO)	1090 nM
Cc1cc(N)c2cc(NC(=O)/C=C/c3ccc([N+](=O)[O-])cc3)ccc2n1 [TCMDC-139335]	–	–	–	5.37 µM	0 (0: NO)	2690 nM
